The text below walks through data of PubChem BioAssay AID264 (DTP/NCI, 2004).

Values joined by “and” are separate entries in the source; they are usually repeats but may differ in a detail not shown here. Equal values may be shown once. Records with an inconclusive call do not appear.

The test relates to nude mice, LX-1 lung xenograft intrarenal, tumor weight T/C. The experiment in a line: NCI In Vivo Anticancer Drug Screen. Data for tumor model Human Lung LX-1 Xenograft (intrarenal inoculation) in NU/NU Swiss (nude) mice. The conditions noted are these: endpoint: mean tumor weight change, higher = larger tumour. The essentials: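 Readout: T/C, i.e. treated-group tumor measurement over vehicle-control measurement. Mice bearing transplantable tumors were dosed with compound or vehicle.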
A general note: In xenograft studies the graft and the host belong to different species.

Where [1] appears, read: dose: 50.0 mg/kg/injection, schedule: Q01DX010 (sc), vehicle: water.
Where [2] appears, read: dose: 40.0 mg/kg/injection, schedule: Q04DX003 (sc), vehicle: Klucel (hydroxypropylcellulose) (HPC).
Where [3] appears, read: dose: 160.0 mg/kg/injection, schedule: Q04DX003 (sc), vehicle: Klucel (hydroxypropylcellulose) (HPC).
[4] abbreviates: dose: 320.0 mg/kg/injection, schedule: Q04DX003 (sc), vehicle: Klucel (hydroxypropylcellulose) (HPC).
[5] abbreviates: dose: 100.0 mg/kg/injection, schedule: Q01DX010 (sc), vehicle: saline.
Where [6] appears, read: dose: 300.0 mg/kg/injection, schedule: Q04DX003 (sc), vehicle: saline with Tween-80.
Where [7] appears, read: dose: 600.0 mg/kg/injection, schedule: Q04DX003 (sc), vehicle: saline with Tween-80.
Setting [8] is: dose: 1200.0 mg/kg/injection, schedule: Q04DX003 (sc), vehicle: saline with Tween-80.
Setting [9] is: dose: 150.0 mg/kg/injection, schedule: Q04DX003 (sc), vehicle: saline with Tween-80.
The mark [10] stands for this setting: dose: 100.0 mg/kg/injection, schedule: Q01DX010 (sc), vehicle: Klucel (hydroxypropylcellulose) (HPC).

On to `CCCCCCCC(=O)N/N=C(\CO)[C@]1(O)Cc2c(O)c3c(c(O)c2[C@@H](OC2CC(N)C(O)C(C)O2)C1)C(=O)c1c(OC)cccc1C3=O` (stereo not given in full), for which the T/C reads like this: (dose: 12.5 mg/kg/injection, schedule: Q01DX010 (sc), vehicle: water) 40 % of control; (dose: 25.0 mg/kg/injection, schedule: Q01DX010 (sc), vehicle: water) 63 % of control; under setting [1], 24 % of control.

In the case of `CC[PH+](CC)CC[S-].CC[PH+](CC)CC[S-].[Au+].[Au+]`, the T/C under setting [2] is 105 % of control, the T/C under setting [3] was 105 % of control and the T/C under setting [4] was 96 % of control.

`CNC=O`: the T/C is 35 % of control under setting [5]; 7 % of control and 15 % of control and 21 % of control (dose: 200.0 mg/kg/injection, schedule: Q01DX010 (sc), vehicle: saline); 1 % of control and 2 % of control and 24 % of control (dose: 400.0 mg/kg/injection, schedule: Q01DX010 (sc), vehicle: saline); 1 % of control (dose: 1600.0 mg/kg/injection, schedule: Q01DX010 (sc), vehicle: saline).

As for `CC(=O)OC(C)C1C2=C(C(=O)CC1(C)O)C(=O)c1c(ccc(-c3ccc4c(c3O)C(=O)C3=C(C4=O)C(C(C)OC(C)=O)C(C)(O)CC3=O)c1O)C2=O` (stereo not given), the T/C was 45 % of control (dose: 3.75 mg/kg/injection, schedule: Q04DX003 (sc), vehicle: saline with Tween-80); 86 % of control (dose: 7.5 mg/kg/injection, schedule: Q04DX003 (sc), vehicle: saline with Tween-80); 87 % of control (dose: 15.0 mg/kg/injection, schedule: Q04DX003 (sc), vehicle: saline with Tween-80); 62 % of control and 78 % of control (dose: 30.0 mg/kg/injection, schedule: Q04DX003 (sc), vehicle: saline with Tween-80).

On to `Nc1ccc2nc3ccc(N)cc3[n+](-c3ccccc3)c2c1`, for which the T/C is 110 % of control (dose: 36.0 mg/kg/injection, schedule: Q04DX003 (sc), vehicle: saline) and 70 % of control (dose: 72.0 mg/kg/injection, schedule: Q04DX003 (sc), vehicle: saline).

In the case of `COC1(OC)C2C=CC1CC2`, the T/C under setting [6] is 105 % of control, the T/C under setting [7] is 150 % of control and the T/C under setting [8] was 104 % of control.

Regarding `CC12CC(C(=O)O)C3(O)CC(C)(C1)CC(C)(C2)C3` (stereo not given) (tested in a mixture with another compound), the T/C runs as follows: (dose: 300.0 mg/kg/injection, schedule: Q04DX003 (sc), vehicle: Klucel (hydroxypropylcellulose) (HPC)) 86 % of control; (dose: 600.0 mg/kg/injection, schedule: Q04DX003 (sc), vehicle: Klucel (hydroxypropylcellulose) (HPC)) 57 % of control; (dose: 1200.0 mg/kg/injection, schedule: Q04DX003 (sc), vehicle: Klucel (hydroxypropylcellulose) (HPC)) 105 % of control; (dose: 2400.0 mg/kg/injection, schedule: Q04DX003 (sc), vehicle: Klucel (hydroxypropylcellulose) (HPC)) 105 % of control.

Turning to `CCOC(=O)C(N)CSC(=O)NC` (stereo not given), the T/C was 165 % of control (dose: 50.0 mg/kg/injection, schedule: Q04DX003 (sc), vehicle: saline) and 94 % of control (dose: 400.0 mg/kg/injection, schedule: Q04DX003 (sc), vehicle: saline).

For the compound `Cc1cc(=O)n2c3c(c4c(cc13)c(CN(C)C)cc(=O)n4C)OC2`, the T/C is 59 % of control (dose: 75.0 mg/kg/injection, schedule: Q04DX003 (sc), vehicle: saline with Tween-80); 89 % of control under setting [9]; 55 % of control under setting [6].

For `CC1(C)OC1CS(=O)c1ccccc1` (stereo not given), the T/C was 121 % of control under setting [7] and 89 % of control under setting [8].

As for `N=C(N)CCCCCCCCC(=N)N`, the T/C runs as follows: (dose: 4.69 mg/kg/injection, schedule: Q04DX003 (sc), vehicle: saline) 91 % of control; (dose: 9.38 mg/kg/injection, schedule: Q04DX003 (sc), vehicle: saline) 92 % of control; (dose: 18.75 mg/kg/injection, schedule: Q04DX003 (sc), vehicle: saline) 94 % of control.

With `CCCCCC[C@H]([C@H](C)O)n1cnc2c(N)ncnc21`, the T/C reads like this: under setting [10], 52 % of control; (dose: 200.0 mg/kg/injection, schedule: Q01DX010 (sc), vehicle: Klucel (hydroxypropylcellulose) (HPC)) 34 % of control.

As for `COC1CC(CC2CCC(C)C(C(C)C(=O)O)O2)OC2(OC(C)(C3CCC(C)(C4OC(C5OC(O)(CO)C(C)CC5C)CC4C)O3)CC2C)C1C` (stereo not given), the T/C (dose: 3.75 mg/kg/injection, schedule: Q04DX003 (sc), vehicle: Klucel (hydroxypropylcellulose) (HPC)) was 110 % of control; the T/C (dose: 7.5 mg/kg/injection, schedule: Q04DX003 (sc), vehicle: Klucel (hydroxypropylcellulose) (HPC)) was 102 % of control; the T/C (dose: 30.0 mg/kg/injection, schedule: Q04DX003 (sc), vehicle: Klucel (hydroxypropylcellulose) (HPC)) is 108 % of control.

On to `O=C(/C=C(\Cl)C(=O)NO)NO`, for which the T/C (dose: 100.0 mg/kg/injection, schedule: Q04DX003 (sc), vehicle: saline) is 103 % of control.

Regarding `Nc1nc(N)c2cc(S(=O)(=O)c3ccccc3)ccc2n1`, the T/C is 116 % of control under setting [9], 77 % of control under setting [6], 87 % of control under setting [7] and 95 % of control under setting [8].

Turning to `Cc1cc(NCCN(C(C)C)C(C)C)nc(/N=C(\N)Nc2ccc(Cl)c(C(F)(F)F)c2)n1`, the T/C under setting [2] was 45 % of control; the T/C (dose: 80.0 mg/kg/injection, schedule: Q04DX003 (sc), vehicle: Klucel (hydroxypropylcellulose) (HPC)) was 60 % of control; the T/C under setting [3] was 46 % of control; the T/C under setting [4] was 62 % of control.

For `OCC12COCN1COC2`, the T/C (dose: 75.0 mg/kg/injection, schedule: Q04DX003 (sc), vehicle: saline) is 102 % of control and the T/C (dose: 150.0 mg/kg/injection, schedule: Q04DX003 (sc), vehicle: saline) is 115 % of control.

With `O=C(O)C1CSCN1` (stereo not given), the T/C by setting is: under setting [1], 86 % of control; (dose: 100.0 mg/kg/injection, schedule: Q01DX010 (sc), vehicle: water) 68 % of control.

`O=C1C=CC(n2cc(F)c(=O)[nH]c2=O)O1` (stereo not given): the T/C reads like this: (dose: 25.0 mg/kg/injection, schedule: Q04DX003 (sc), vehicle: Klucel (hydroxypropylcellulose) (HPC)) 57 % of control; (dose: 50.0 mg/kg/injection, schedule: Q04DX003 (sc), vehicle: Klucel (hydroxypropylcellulose) (HPC)) 60 % of control; (dose: 100.0 mg/kg/injection, schedule: Q04DX003 (sc), vehicle: Klucel (hydroxypropylcellulose) (HPC)) 46 % of control.

With `Cn1cnc([N+](=O)[O-])c1S(=O)(=O)NCN1CCOCC1`, the T/C runs as follows: (dose: 25.0 mg/kg/injection, schedule: Q01DX010 (sc), vehicle: Klucel (hydroxypropylcellulose) (HPC)) 34 % of control; (dose: 50.0 mg/kg/injection, schedule: Q01DX010 (sc), vehicle: Klucel (hydroxypropylcellulose) (HPC)) 67 % of control; under setting [10], 43 % of control.

Take `CC(=O)c1c(O)c(C)c(O)c2c1OC1=CC(=O)C(C(C)=O)C(=O)C12C` (stereo not given): the T/C reads like this: (dose: 25.0 mg/kg/injection, schedule: Q01DX010 (sc), vehicle: sodium bicarbonate) 207 % of control; (dose: 50.0 mg/kg/injection, schedule: Q01DX010 (sc), vehicle: sodium bicarbonate) 102 % of control; (dose: 200.0 mg/kg/injection, schedule: Q01DX010 (sc), vehicle: sodium bicarbonate) 82 % of control and 104 % of control.

Turning to `COc1cc(C)c2c(c1C=O)Oc1c(c(C)c(O)c3c1C(O)OC3=O)OC2=O` (stereo not given), the T/C reads like this: (dose: 12.5 mg/kg/injection, schedule: Q01DX010 (sc), vehicle: saline) 95 % of control; (dose: 25.0 mg/kg/injection, schedule: Q01DX010 (sc), vehicle: saline) 103 % of control; (dose: 50.0 mg/kg/injection, schedule: Q01DX010 (sc), vehicle: saline) 59 % of control; under setting [5], 32 % of control.

`COC1C(/C=C/C(C)=O)OC2OC(C)(C)OC21` (stereo not given): the T/C is, setting by setting: (dose: 75.0 mg/kg/injection, schedule: Q04DX003 (sc), vehicle: suspension in saline) 52 % of control; (dose: 150.0 mg/kg/injection, schedule: Q04DX003 (sc), vehicle: suspension in saline) 158 % of control; (dose: 300.0 mg/kg/injection, schedule: Q04DX003 (sc), vehicle: suspension in saline) 123 % of control.

Consider `CC(C)=CCNc1ncnc2c1ncn2C1OC(CO)C(O)C1O` (stereo not given), for which the T/C was 93 % of control (dose: 200.0 mg/kg/injection, schedule: Q04DX003 (sc), vehicle: suspension in saline); 112 % of control (dose: 400.0 mg/kg/injection, schedule: Q04DX003 (sc), vehicle: suspension in saline); 88 % of control (dose: 800.0 mg/kg/injection, schedule: Q04DX003 (sc), vehicle: suspension in saline).
